The source made the active and inactive calls. The calls are words filed in the database; no cut-off is given here.
Experiments:
[1] = Metabolic stability in nude mouse microsomes assessed as half life at 1 uM by HPLC-MS/MS analysis; format: ADME, Microsome
[2] = target: T1, Serine/threonine-protein kinase mTOR (Homo sapiens, UniProt P42345); experiment: Inhibition of flag-tagged truncated human mTOR (1360-2549) expressed in HEK293 cells by DELFIA assay; format: cell-based
[3] = Aqueous solubility at pH 3; format: physicochemical; conditions: buffer
LNCaP = experiment: Cytotoxicity against human LNCAP cells after 3 days by MTS assay; format: functional, cell-based; conditions: 72 h
[4] = target: Phosphatidylinositol 4,5-bisphosphate 3-kinase catalytic subunit alpha isoform (Homo sapiens, UniProt P42336); experiment: Inhibition of PI3Kalpha expressed in Escherichia coli by microtiter plate-based fluorescence polarization assay
Phosphatidylinositol 4,5-bisphosphate 3-kinase catalytic subunit alpha isoform, sequence (P42336 whole entry, canonical isoform): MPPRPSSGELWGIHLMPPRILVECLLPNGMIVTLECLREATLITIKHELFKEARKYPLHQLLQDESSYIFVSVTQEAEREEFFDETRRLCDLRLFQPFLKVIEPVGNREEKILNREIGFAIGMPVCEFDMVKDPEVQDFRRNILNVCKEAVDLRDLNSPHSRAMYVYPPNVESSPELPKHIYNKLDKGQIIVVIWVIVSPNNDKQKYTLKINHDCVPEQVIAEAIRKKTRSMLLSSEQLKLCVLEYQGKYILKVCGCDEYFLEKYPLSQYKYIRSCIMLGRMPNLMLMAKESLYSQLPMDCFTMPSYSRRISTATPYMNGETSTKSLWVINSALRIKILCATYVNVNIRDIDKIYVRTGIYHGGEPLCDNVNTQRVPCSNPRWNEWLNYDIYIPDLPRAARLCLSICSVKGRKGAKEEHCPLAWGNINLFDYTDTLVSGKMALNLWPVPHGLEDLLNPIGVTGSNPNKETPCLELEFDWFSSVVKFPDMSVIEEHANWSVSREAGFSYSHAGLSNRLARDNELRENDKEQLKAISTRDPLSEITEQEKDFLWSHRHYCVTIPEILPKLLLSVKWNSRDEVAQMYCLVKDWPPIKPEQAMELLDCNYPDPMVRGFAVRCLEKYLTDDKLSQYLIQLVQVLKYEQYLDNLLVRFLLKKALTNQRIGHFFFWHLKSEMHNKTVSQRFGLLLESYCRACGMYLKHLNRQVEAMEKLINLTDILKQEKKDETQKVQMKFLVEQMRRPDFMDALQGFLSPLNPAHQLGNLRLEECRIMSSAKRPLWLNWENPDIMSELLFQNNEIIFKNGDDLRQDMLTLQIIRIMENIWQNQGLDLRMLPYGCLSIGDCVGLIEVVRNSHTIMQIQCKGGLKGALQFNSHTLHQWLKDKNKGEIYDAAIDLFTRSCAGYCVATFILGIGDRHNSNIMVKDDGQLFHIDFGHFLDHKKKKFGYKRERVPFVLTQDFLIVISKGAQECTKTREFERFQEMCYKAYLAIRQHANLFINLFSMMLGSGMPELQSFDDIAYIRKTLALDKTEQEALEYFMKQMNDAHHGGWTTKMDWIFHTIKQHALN

[5] = target: Phosphatidylinositol 4,5-bisphosphate 3-kinase catalytic subunit gamma isoform (Homo sapiens, UniProt P48736); experiment: Inhibition of PI3Kgamma
[6] = target: T1, Serine/threonine-protein kinase mTOR; experiment: Inhibition of mTOR complex 2 in human PC3MM2 cells assessed as suppression of P-AKT phosphorylation at S473 treated for 6 hrs by immunoblotting analysis; format: cell-based
[7] = target: T1, Serine/threonine-protein kinase mTOR; experiment: Inhibition of mTOR complex 1 in human U87MG cells assessed as suppression of S6K phosphorylation at T389 treated for 6 hrs by immunoblotting analysis; format: cell-based; conditions: U-87MG ATCC
[8] = target: RAC-alpha serine/threonine-protein kinase (Homo sapiens, UniProt P31749); experiment: Inhibition of PKBalpha after 1 hr by mobility shift electrophoresis assay
Mus musculus [9] = experiment: Inhibition of mTOR complex 2 in BALB/c nu/nu mouse bearing PTEN-null human PC3MM2 xenograft tumor assessed as suppression of P-AKT phosphorylation at S473 at 50 mg/kg, ip administered as single dose for 4 to 6 hrs; format: functional, organism-based; set-up: dose 50 mg/kg
[10] = target: Mitogen-activated protein kinase 1 (Homo sapiens, UniProt P28482); experiment: Inhibition of ERK2 after 1 hr by mobility shift electrophoresis assay
[11] = target: Vascular endothelial growth factor receptor 2 (Homo sapiens, UniProt P35968); experiment: Inhibition of VEGFR2 after 1 hr by mobility shift electrophoresis assay
[12] = target: Tyrosine-protein kinase ABL1 (Homo sapiens, UniProt P00519); experiment: Inhibition of ABL1 after 1 hr by mobility shift electrophoresis assay
[13] = target: Tyrosine-protein kinase Lyn (Homo sapiens, UniProt P07948); experiment: Inhibition of LYN after 1 hr by mobility shift electrophoresis assay
[14] = target: Rho-associated protein kinase 1 (Homo sapiens, UniProt Q13464); experiment: Inhibition of ROCK1 after 1 hr by mobility shift electrophoresis assay
[15] = target: Protein kinase C beta type (Homo sapiens, UniProt P05771); experiment: Inhibition of PKCbeta after 1 hr by mobility shift electrophoresis assay
[16] = target: Inhibitor of nuclear factor kappa-B kinase subunit alpha (Homo sapiens, UniProt O15111); experiment: Inhibition of IKKalpha after 1 hr by mobility shift electrophoresis assay
[17] = target: Casein kinase I isoform gamma-1 (Homo sapiens, UniProt Q9HCP0); experiment: Inhibition of CK1gamma1 after 1 hr by mobility shift electrophoresis assay
[18] = target: Ribosomal protein S6 kinase alpha-1 (Homo sapiens, UniProt Q15418); experiment: Inhibition of RSK1 after 1 hr by mobility shift electrophoresis assay
Ribosomal protein S6 kinase alpha-1, sequence (Q15418 whole entry): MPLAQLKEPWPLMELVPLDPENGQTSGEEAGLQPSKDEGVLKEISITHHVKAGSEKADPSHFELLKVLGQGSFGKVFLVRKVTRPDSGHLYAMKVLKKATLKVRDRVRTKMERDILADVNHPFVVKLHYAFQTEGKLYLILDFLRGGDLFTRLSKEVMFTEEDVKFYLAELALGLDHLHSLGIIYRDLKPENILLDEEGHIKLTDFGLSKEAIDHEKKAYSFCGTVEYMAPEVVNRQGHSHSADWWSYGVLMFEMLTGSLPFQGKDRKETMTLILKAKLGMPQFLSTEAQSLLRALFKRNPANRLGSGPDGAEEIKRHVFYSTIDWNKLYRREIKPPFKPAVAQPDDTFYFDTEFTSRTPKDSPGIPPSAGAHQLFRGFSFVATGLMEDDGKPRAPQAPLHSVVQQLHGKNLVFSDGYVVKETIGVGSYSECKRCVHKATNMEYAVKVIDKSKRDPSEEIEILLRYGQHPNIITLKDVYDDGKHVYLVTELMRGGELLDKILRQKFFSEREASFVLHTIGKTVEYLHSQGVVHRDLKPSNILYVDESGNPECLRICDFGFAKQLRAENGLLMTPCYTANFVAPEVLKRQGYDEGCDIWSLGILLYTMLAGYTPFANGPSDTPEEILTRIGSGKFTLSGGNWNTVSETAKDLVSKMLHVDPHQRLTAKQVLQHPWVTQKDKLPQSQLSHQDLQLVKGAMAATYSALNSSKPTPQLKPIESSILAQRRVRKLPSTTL

[19] = target: Mitogen-activated protein kinase 14 (Homo sapiens, UniProt Q16539); experiment: Inhibition of p38alpha after 1 hr by mobility shift electrophoresis assay
Mitogen-activated protein kinase 14, sequence (Q16539 whole entry): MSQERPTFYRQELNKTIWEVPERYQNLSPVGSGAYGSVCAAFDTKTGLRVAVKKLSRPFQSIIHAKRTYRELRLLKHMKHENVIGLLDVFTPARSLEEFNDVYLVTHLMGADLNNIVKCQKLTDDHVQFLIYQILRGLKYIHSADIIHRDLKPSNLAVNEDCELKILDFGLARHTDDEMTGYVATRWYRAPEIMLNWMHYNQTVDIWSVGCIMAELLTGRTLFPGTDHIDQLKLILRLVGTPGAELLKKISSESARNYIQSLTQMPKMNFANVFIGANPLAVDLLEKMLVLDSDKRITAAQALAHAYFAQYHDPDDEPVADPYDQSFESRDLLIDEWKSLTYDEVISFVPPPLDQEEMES

[20] = Antitumor activity against human U87MG cells xenografted in BALB/c nu/nu mouse at 50 mg/kg, ip administered twice daily for 5 days measured on day 7 relative to control; format: functional, U-87MG ATCC; conditions: route intraperitoneal
[21] = target: Proto-oncogene tyrosine-protein kinase Src (Homo sapiens, UniProt P12931); experiment: Inhibition of SRC after 1 hr by mobility shift electrophoresis assay
[22] = Inhibition of PIKK assessed as blockade of VP16-induced phosphorylation of p53 at S15 at 3 umol/L
[23] = Inhibition of PKA after 1 hr by mobility shift electrophoresis assay
[24] = target: Mitogen-activated protein kinase kinase kinase kinase 2 (Homo sapiens, UniProt Q12851); experiment: Inhibition of GCK after 1 hr by mobility shift electrophoresis assay
Mitogen-activated protein kinase kinase kinase kinase 2, sequence (Q12851 whole entry): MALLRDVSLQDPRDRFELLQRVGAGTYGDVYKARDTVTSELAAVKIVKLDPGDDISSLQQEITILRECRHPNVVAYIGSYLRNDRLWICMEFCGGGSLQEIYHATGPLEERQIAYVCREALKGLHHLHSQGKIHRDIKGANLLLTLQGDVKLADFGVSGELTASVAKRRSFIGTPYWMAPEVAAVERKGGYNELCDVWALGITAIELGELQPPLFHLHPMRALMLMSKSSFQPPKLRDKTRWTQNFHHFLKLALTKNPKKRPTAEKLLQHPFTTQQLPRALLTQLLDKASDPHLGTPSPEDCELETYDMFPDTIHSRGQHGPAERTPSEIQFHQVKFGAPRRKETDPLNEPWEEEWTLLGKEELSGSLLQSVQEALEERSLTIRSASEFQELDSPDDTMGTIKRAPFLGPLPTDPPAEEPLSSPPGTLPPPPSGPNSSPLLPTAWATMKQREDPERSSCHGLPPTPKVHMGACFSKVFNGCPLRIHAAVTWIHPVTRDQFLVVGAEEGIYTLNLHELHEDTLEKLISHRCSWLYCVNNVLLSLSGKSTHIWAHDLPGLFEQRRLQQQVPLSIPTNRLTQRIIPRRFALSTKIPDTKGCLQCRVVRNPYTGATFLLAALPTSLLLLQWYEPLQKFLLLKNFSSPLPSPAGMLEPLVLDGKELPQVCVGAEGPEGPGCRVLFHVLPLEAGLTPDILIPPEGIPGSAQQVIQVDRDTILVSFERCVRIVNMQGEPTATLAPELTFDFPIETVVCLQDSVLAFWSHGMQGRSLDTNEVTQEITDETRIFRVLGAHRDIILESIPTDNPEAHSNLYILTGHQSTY

[25] = target: Cyclin-dependent kinase 2 (Homo sapiens, UniProt P24941); experiment: Inhibition of CDK2/cyclinA after 1 hr by mobility shift electrophoresis assay
[26] = target: Tyrosine-protein kinase HCK (Homo sapiens, UniProt P08631); experiment: Inhibition of HCK after 1 hr by mobility shift electrophoresis assay
[27] = target: T1, Serine/threonine-protein kinase mTOR; experiment: Inhibition of mTOR complex 2 in human U87MG cells assessed as suppression of AKT phosphorylation at S473 treated for 6 hrs by immunoblotting analysis; format: cell-based; conditions: U-87MG ATCC
[28] = target: Platelet-derived growth factor receptor alpha (Homo sapiens, UniProt P16234); experiment: Inhibition of PDGFRalpha after 1 hr by mobility shift electrophoresis assay
Aurora kinase B = Aurora kinase B (Homo sapiens, UniProt Q96GD4); experiment: Inhibition of Aurora B after 1 hr by mobility shift electrophoresis assay
[29] = target: Cyclin-dependent kinase 1/cyclin B1 (Homo sapiens, UniProt P06493); experiment: Inhibition of CDK1/cyclinB after 1 hr by mobility shift electrophoresis assay; format: protein-complex assay
Cyclin-dependent kinase 1/cyclin B1, sequence (P06493 whole entry): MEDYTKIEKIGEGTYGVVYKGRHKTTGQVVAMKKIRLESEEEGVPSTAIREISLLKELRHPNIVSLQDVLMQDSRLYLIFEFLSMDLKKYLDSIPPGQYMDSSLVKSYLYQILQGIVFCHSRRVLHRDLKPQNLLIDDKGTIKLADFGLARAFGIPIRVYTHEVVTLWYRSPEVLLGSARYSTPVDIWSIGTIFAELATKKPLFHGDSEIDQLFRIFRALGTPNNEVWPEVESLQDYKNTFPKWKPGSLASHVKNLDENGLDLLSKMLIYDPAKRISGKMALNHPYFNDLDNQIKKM
Cyclin-dependent kinase 1/cyclin B1, sequence (P14635 whole entry, further chain): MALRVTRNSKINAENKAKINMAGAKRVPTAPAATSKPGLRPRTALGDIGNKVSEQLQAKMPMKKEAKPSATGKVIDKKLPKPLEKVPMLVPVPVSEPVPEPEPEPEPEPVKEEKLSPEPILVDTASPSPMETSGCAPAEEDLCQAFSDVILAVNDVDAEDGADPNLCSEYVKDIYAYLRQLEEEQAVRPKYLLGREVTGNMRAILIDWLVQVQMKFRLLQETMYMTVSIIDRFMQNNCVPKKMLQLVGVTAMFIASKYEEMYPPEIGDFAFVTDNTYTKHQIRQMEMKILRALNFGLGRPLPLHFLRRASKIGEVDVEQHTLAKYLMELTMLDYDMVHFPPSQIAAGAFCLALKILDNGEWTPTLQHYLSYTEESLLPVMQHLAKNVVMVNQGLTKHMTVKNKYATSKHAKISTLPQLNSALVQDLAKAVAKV

[30] = Inhibition of PIKK assessed as blockade of VP16-induced phosphorylation of ChK1 at S345 at 3 umol/L
[31] = target: Serine/threonine-protein kinase Chk1 (Homo sapiens, UniProt O14757); experiment: Inhibition of CHK1 after 1 hr by mobility shift electrophoresis assay
Serine/threonine-protein kinase Chk1, sequence (O14757 whole entry): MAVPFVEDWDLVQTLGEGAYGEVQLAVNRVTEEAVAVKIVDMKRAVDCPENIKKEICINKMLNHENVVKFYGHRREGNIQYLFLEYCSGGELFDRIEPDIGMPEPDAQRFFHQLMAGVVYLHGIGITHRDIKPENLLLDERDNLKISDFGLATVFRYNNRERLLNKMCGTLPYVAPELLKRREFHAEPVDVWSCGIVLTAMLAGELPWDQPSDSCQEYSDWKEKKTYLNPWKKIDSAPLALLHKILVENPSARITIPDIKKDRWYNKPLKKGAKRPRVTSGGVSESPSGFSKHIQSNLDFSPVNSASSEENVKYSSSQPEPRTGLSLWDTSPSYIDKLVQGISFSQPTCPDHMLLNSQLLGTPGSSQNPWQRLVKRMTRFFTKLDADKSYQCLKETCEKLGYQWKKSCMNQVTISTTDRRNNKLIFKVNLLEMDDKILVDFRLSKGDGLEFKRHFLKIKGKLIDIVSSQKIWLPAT

Mus musculus [32] = experiment: Inhibition of mTOR complex 1 in BALB/c nu/nu mouse bearing PTEN-null human PC3MM2 xenograft tumor assessed as suppression of S6K phosphorylation at T389 at 50 mg/kg, ip administered as single dose for 6 hrs; format: functional, organism-based; set-up: dose 50 mg/kg
[33] = target: T1, Serine/threonine-protein kinase mTOR; experiment: Inhibition of mTOR complex 1 in human PC3MM2 cells assessed as suppression of S6K phosphorylation at T389 treated for 6 hrs by immunoblotting analysis; format: cell-based
[34] = target: Tyrosine-protein kinase Fyn (Homo sapiens, UniProt P06241); experiment: Inhibition of FYN after 1 hr by mobility shift electrophoresis assay
Tyrosine-protein kinase Fyn, sequence (P06241 whole entry): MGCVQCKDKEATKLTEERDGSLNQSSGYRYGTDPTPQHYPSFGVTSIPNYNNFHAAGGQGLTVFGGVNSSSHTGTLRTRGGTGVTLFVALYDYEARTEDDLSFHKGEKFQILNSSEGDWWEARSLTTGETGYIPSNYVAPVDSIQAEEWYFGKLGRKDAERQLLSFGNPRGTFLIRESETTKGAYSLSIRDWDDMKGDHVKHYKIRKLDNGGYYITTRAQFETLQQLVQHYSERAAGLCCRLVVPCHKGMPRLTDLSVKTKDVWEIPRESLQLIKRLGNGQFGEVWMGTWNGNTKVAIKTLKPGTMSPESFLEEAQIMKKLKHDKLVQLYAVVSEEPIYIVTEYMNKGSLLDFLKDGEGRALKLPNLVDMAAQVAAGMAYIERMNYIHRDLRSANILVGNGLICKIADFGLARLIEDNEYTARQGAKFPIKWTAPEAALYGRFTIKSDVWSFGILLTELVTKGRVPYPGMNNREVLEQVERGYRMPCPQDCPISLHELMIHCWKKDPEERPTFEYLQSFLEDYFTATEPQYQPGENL

[35] = target: MAP kinase-activated protein kinase 2 (Homo sapiens, UniProt P49137); experiment: Inhibition of MK2 after 1 hr by mobility shift electrophoresis assay
Mus musculus [36] = experiment: Inhibition of PI3K in BALB/c nu/nu mouse bearing PTEN-null human PC3MM2 xenograft tumor assessed as suppression of AKT phosphorylation at T308 at 50 mg/kg, ip administered as single dose for 4 hrs; format: functional, organism-based; set-up: dose 50 mg/kg
[37] = Antitumor activity against human U87MG cells xenografted in BALB/c nu/nu mouse at 50 mg/kg, ip administered once daily for 5 days measured on day 7 relative to control; format: functional, U-87MG ATCC; conditions: route intraperitoneal
[38] = target: Protein kinase C alpha type (Homo sapiens, UniProt P17252); experiment: Inhibition of PKCalpha after 1 hr by mobility shift electrophoresis assay
Mus musculus [39] = experiment: Inhibition of mTOR complex 1 in BALB/c nu/nu mouse bearing PTEN-null human PC3MM2 xenograft tumor assessed as suppression of S6K phosphorylation at T389 at 50 mg/kg, ip administered as single dose for 4 hrs; format: functional, organism-based; set-up: dose 50 mg/kg
Mus musculus [40] = experiment: Inhibition of mTOR complex 2 in BALB/c nu/nu mouse bearing PTEN-null human PC3MM2 xenograft tumor assessed as suppression of AKT phosphorylation at S473 at 50 mg/kg, ip administered as single dose for 4 hrs; format: functional, organism-based; set-up: dose 50 mg/kg

O=C(Nc1ccc(-c2nc(N3CCOCC3)c3cnn(C4CCN(Cc5cccnc5)CC4)c3n2)cc1)OCCO
half-life at 1 µM [1]: 6 min

CC(=O)Nc1cccc(-c2nc(N3CCOCC3)c3cnn(C4CCN(Cc5ccccc5)CC4)c3n2)c1
IC50 [2]: 2450 nM

COC(=O)N1CCC(n2ncc3c(N4CCOCC4)nc(-c4ccc(NC(=O)Nc5ccc(N6CCN(C)CC6)cc5)cc4)nc32)CC1
solubility [3]: > 100 µg/mL

CNC(=O)Nc1ccc(-c2nc(N3CCOCC3)c3cnn(C4CCN(Cc5ccccc5)CC4)c3n2)cc1
half-life at 1 µM [1]: 3 min

CNC(=O)Nc1ccc(-c2nc(N3CCOCC3)c3cnn(C4CCN(C)CC4)c3n2)cc1
IC50 (LNCaP): 733 nM | IC50 [2]: 22 nM | half-life at 1 µM [1]: 2 min

CNC(=O)Nc1ccc(-c2nc(N3CCOCC3)c3cnn(C4CCNCC4)c3n2)cc1
IC50 (LNCaP): 1370 nM | IC50 [2]: 1.4 nM | half-life at 1 µM [1]: > 30 min

O=C(Nc1ccncc1)Nc1ccc(-c2nc(N3CCOCC3)c3cnn(C4CCN(C(=O)c5cccnc5)CC4)c3n2)cc1
IC50 (LNCaP): 150 nM | IC50 [2]: 0.83 nM | half-life at 1 µM [1]: 22 min | IC50 [4]: 548 nM

COC(=O)Nc1ccc(-c2nc(N3CCOCC3)c3cnn(C4CCN(C(=O)OC)CC4)c3n2)cc1
IC50 [5]: 6.32 µM | IC50 (LNCaP): 355 nM | Activity [6]: Dose-dependent effect | Activity [7]: Dose-dependent effect | IC50 [8]: > 50 µM | Activity (Mus musculus [9]): Active | IC50 [10]: > 50 µM | IC50 [11]: > 50 µM | IC50 [12]: > 50 µM | IC50 [13]: > 50 µM | IC50 [2]: 4.3 nM | IC50 [14]: > 50 µM | IC50 [15]: > 50 µM | IC50 [16]: > 50 µM | half-life at 1 µM [1]: > 30 min | IC50 [17]: > 50 µM | IC50 [18]: > 50 µM | IC50 [19]: > 50 µM | T/C [20]: 0.14 | IC50 [4]: 1030 nM | IC50 [21]: > 50 µM | Activity [22]: inactive | IC50 [23]: > 50 µM | IC50 [24]: > 50 µM | IC50 [25]: > 50 µM | IC50 [26]: > 50 µM | Activity [27]: Dose-dependent effect | IC50 [28]: > 50 µM | IC50 (Aurora kinase B): > 50 µM | IC50 [29]: > 50 µM | Activity [30]: inactive | IC50 [31]: > 50 µM | Activity (Mus musculus [32]): Active | Activity [33]: Dose-dependent effect | IC50 [34]: > 50 µM | IC50 [35]: > 50 µM | Activity (Mus musculus [36]): inactive | T/C [37]: 0.62 | IC50 [38]: > 50 µM

CNC(=O)Nc1ccc(-c2nc(N3CCOCC3)c3cnn(C4CCN(C(=O)OC)CC4)c3n2)cc1
Activity (Mus musculus [39]): Active | Activity (Mus musculus [40]): Active | Activity (Mus musculus [36]): inactive | T/C [37]: 0.57

COC(=O)N1CCC(n2ncc3c(N4CCOCC4)nc(-c4ccc(NC(=O)Nc5cccnc5)cc4)nc32)CC1
IC50 (LNCaP): 31 nM | IC50 [2]: 0.2 nM | half-life at 1 µM [1]: 24 min | IC50 [4]: 35 nM

COC(=O)Nc1ccc(-c2nc(N3CCOCC3)c3cnn(C4CCN(Cc5cccnc5)CC4)c3n2)cc1
half-life at 1 µM [1]: 14 min

COC(=O)N1CCC(n2ncc3c(N4CCOCC4)nc(-c4ccc(NC(=O)OCCO)cc4)nc32)CC1
IC50 (LNCaP): 28 nM | IC50 [2]: 1 nM | half-life at 1 µM [1]: > 30 min

Oc1cccc(-c2nc(N3CCOCC3)c3cnn(C4CCN(Cc5cccnc5)CC4)c3n2)c1
IC50 (LNCaP): 53 nM | IC50 [2]: 9.6 nM | half-life at 1 µM [1]: 5 min

COC(=O)N1CCC(n2ncc3c(N4CCOCC4)nc(-c4ccc(NC(=O)Nc5ccc(CO)cc5)cc4)nc32)CC1
IC50 (LNCaP): < 1 nM | IC50 ([2]; hek293): 0.08 nM | half-life at 1 µM [1]: 13 min | IC50 [4]: 6 nM

CNC(=O)Nc1ccc(-c2nc(N3CCOCC3)c3cnn(C4CCN(C(=O)N(C)C)CC4)c3n2)cc1
IC50 (LNCaP): 197 nM | IC50 [2]: 1.1 nM | half-life at 1 µM [1]: > 30 min

CNC(=O)Nc1ccc(-c2nc(N3CCOCC3)c3cnn(C4CCN(C(=O)NC)CC4)c3n2)cc1
IC50 (LNCaP): 2570 nM | IC50 ([2]; hek293): 2 nM

COC(=O)N1CCC(n2ncc3c(N4CCOCC4)nc(-c4ccc(NC(=O)Nc5ccncc5)cc4)nc32)CC1
IC50 (LNCaP): 60 nM | IC50 ([2]; hek293): 0.3 nM | half-life at 1 µM [1]: 9 min | IC50 [4]: 18 nM

CNC(=O)Nc1ccc(-c2nc(N3CCOCC3)c3cnn(C4CCN(C(C)=O)CC4)c3n2)cc1
IC50 (LNCaP): 817 nM | IC50 ([2]; hek293): 2.1 nM | half-life at 1 µM [1]: 27 min

CCNC(=O)Nc1ccc(-c2nc(N3CCOCC3)c3cnn(C4CCN(C(=O)OC)CC4)c3n2)cc1
IC50 (LNCaP): 55 nM | IC50 [2]: 0.32 nM | half-life at 1 µM [1]: > 30 min

CNC(=O)Nc1ccc(-c2nc(N3CCOCC3)c3cnn(C4CCN(Cc5cccnc5)CC4)c3n2)cc1
half-life at 1 µM [1]: 12 min

CCOC(=O)Nc1ccc(-c2nc(N3CCOCC3)c3cnn(C4CCN(Cc5ccccc5)CC4)c3n2)cc1
IC50 (LNCaP): 3400 nM | IC50 [2]: 46 nM | IC50 [4]: 631 nM

CC(=O)Nc1ccc(-c2nc(N3CCOCC3)c3cnn(C4CCN(Cc5cccnc5)CC4)c3n2)cc1
IC50 (LNCaP): 66 nM | IC50 [2]: 7 nM | half-life at 1 µM [1]: 12 min

From ChEMBL document CHEMBL1151963 (J Med Chem, 2009)
